Key:
[1] = target: T1, UT-B (Homo sapiens, UniProt Q13336); experiment: RBC lysis assay, human RBCs; format: cell-based; settings: lysis assay, FIG. 5B, read-out: apparent EC50
T1 construct: a red blood cell (i.e., erythrocyte), which endogenously expresses the urea transporter UT-B; endogenous in cells; host or cells: human red blood cells (whole venous blood, single donor)
T1 sequence (Q13336 1-389): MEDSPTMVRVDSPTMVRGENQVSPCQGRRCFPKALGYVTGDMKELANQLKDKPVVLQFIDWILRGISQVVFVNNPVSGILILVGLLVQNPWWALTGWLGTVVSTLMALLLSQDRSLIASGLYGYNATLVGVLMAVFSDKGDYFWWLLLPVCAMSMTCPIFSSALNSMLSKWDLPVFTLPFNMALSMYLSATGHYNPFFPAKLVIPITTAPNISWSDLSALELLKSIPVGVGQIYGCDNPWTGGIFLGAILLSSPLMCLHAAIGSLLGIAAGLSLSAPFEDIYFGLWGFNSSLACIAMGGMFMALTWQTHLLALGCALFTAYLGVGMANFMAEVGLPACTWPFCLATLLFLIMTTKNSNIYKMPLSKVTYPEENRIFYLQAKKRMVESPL
Description: Vigorous mixing was achieved by repeated pipetting.

[2] = system: RBCs from wild-type mice; experiment: Osmotic water permeability, RBCs from wild-type mice; format: cell-based, mouse; settings: inhibitors 25 μM, phloretin 0.7 mM, 10° C.
Description: FIGS. 8A-B illustrate UT-B-facilitated water transport by ‘chemical UT-B knock-out’. Osmotic water permeability was measured from the time course of RBC volume in response to a 250-mM inwardly directed sucrose gradient. FIG. 8A presents representative traces of mouse RBC water permeability performed at 10° C., with genotypes and conditions indicated. Inhibitors ureainh-201 and ureainh-302 were used at 25 μM. FIG. 8B presents osmotic water permeability coefficients (Pf) from experiments as illustrated in FIG. 8A (±SE, 3-7 curves per group of RBCs pooled from 4 mice per genotype). *, P<0.01 compared with no inhibitor; #, P<0.01 compared with wild-type (no inhibitor).
RBC urea and water permeabilities were assayed by stopped-flow light scattering using a Hi-Tech Sf-51 instrument (Wiltshire, UK). For measurement of urea permeability, dilutions of whole blood (human or mouse; see Example 1) in PBS (hematocrit: approximately 0.5%) were incubated with test compounds for 5 min and then subjected to a 250-mM inwardly directed gradient of urea. After an initial osmotic shrinking phase, the kinetics of increasing cell volume caused by urea influx were measured as the time-course of 90° scattered light intensity at 530 nm, with increasing cell volume resulting in reduced scattered light intensity. As a positive control, 0.7 mM phloretin was added to the RBC suspension prior to stopped-flow experiments. Measurements of water permeability were carried out similarly, with sucrose (cell-impermeant) used instead of urea to establish a 250-mM osmotic gradient. As a positive control, HgCl2 (0.3 mM) was added to the RBC suspension prior to stopped-flow measurements. Osmotic water permeability coefficients (Pf) were computed from light scattering data as described (van Hoek et al., J Biol Chem. 267:18267-69 (1992)).
This example describes chemical knock-out of UT-B by UT-B inhibitors in RBCs and the effect on UT-B-facilitated Water transport. […] Osmotic water permeability was measured by stopped-flow light scattering in RBCs from wild-type and AQP1-null mice as shown in FIG. 8A. […] AQP1-null RBCs had greater than 5-fold reduced Pf compared to wild-type RBCs.

EC50 [1]	SMILES	effect on water transport [2]
100 nM	Cc1ccc(Nc2nnc(-c3ccc(C(N)=O)cc3)c3ccccc23)cc1 [ureainh-302]	little effect on water transport
30 nM	NC(=O)CSc1oc(-c2ccccc2)nc1S(=O)(=O)c1ccc(Br)cc1 [ureainh-101]	little effect on water transport
